Literature values, collected in patent US20230330115A1 (priority 2022, published 2023).
Entries after “also recorded” stand apart in the source; their conditions may differ.

Key:
CB1 receptor = details: read-out: Binding Affinity CB1
CB2 [1] = biological target: T1, CB2 (Homo sapiens, UniProt P34972); details: read-out: Binding Affinity CB2
CB2 [2] = biological target: T1, CB2; details: read-out: Functional Activity CB2
CB1 = CB1 (Homo sapiens, UniProt P21554); details: read-out: Functional Activity CB1
rodents = rodents administered THCB

Chain of CB1 (P21554 whole entry): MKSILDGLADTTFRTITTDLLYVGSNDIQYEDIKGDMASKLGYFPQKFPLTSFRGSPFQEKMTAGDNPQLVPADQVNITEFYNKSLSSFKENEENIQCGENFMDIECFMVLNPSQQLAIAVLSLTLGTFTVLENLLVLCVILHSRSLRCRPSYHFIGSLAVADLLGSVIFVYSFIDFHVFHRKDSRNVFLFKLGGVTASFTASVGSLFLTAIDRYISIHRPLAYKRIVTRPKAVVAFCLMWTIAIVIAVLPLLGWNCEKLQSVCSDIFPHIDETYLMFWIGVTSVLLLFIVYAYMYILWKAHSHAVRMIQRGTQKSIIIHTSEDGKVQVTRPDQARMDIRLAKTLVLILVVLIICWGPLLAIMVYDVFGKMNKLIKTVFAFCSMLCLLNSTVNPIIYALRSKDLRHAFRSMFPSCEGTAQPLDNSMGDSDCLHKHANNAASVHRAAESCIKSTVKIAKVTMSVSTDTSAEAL
T1 sequence (P34972 whole entry): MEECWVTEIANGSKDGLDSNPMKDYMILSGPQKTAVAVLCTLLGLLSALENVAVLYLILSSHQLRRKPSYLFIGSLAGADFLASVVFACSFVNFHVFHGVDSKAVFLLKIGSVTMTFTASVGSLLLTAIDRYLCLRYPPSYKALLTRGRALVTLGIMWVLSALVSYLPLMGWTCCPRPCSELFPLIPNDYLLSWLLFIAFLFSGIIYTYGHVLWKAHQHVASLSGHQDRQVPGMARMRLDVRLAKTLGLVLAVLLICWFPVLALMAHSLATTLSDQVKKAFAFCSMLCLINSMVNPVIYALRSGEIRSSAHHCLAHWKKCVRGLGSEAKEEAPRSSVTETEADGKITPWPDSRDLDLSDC

| Compound | Ki (CB1 receptor) [nM] | Ki (CB2 [1]) [nM] | EC50 (CB2 [2]) [nM] | EC50 (CB1) [nM] | also measured |
| --- | --- | --- | --- | --- | --- |
| CCCCCc1cc2c(c(O)c1C(=O)O)[C@@H]1C=C(C)CC[C@H]1C(C)(C)O2 (relative stereo) [THCA, (—)trans-delta-9-tetrahydrocannabinolic acid] | 1290 | 1650 | > 10000 | > 10000 |  |
| CCCCc1cc(O)c2c(c1)OC(C)(C)[C@@H]1CCC(C)=C[C@@H]21 (relative stereo) [THCB, (—)trans-delta-9-tetrahydrocannabibutol] | 15 |  |  |  | formalin test outcome (rodents): possible analgesic and anti-inflammatory properties; catalepsy, analgesia, hypolocomotion (mice; first phase (10 mg/kg)): no significant catalepsy, analgesia, or hypolocomotion; also recorded: no significant catalepsy, analgesia, or hypo locomotion; hypothermic effect (decrease) (mice; first phase (10 mg/kg)): less than 0.5 °C; activity type corroborated by Tetrad Test (mice; mice): CB1 partial agonistic activity; catalepsy and analgesia (mice; second phase (20 mg/kg)): significant direct effect on catalepsy and analgesia; also recorded: very significant catalepsy and analgesia effect; hypolocomotion (mice; second phase (20 mg/kg)): slight direct effect on hypolocomotion; hypothermic effect (mice; second phase (20 mg/kg)): appears to reverse; also recorded: reversal in the second phase |
| CCCCCCCc1cc(O)c2c(c1)OC(C)(C)[C@@H]1CCC(C)=C[C@@H]21 (relative stereo) [THCP, (—)trans-delta-9-tetrahydrocannabiphorol] | 1.2 |  |  |  | hypothermia, dose dependence (mice; 5 mg/Kg vs 10 mg/Kg): does appear to increase at higher doses; potency at CB1 relative to THC (mice; Tetrad Test in mice, even at low doses (5 mg/kg of body weight)): about 30 times; effects in mice (Tetrad Test criteria) (mice; mice): hypomotility, analgesia, catalepsy and decreased rectal temperature; dose dependence of the effects (mice; mice, increasing dose (5 mg/Kg vs 10 mg/Kg)): do not appear to increase as the dose increases |
| CCCc1cc(O)c2c(c1)OC(C)(C)[C@@H]1CCC(C)=C[C@@H]21 (single isomer, unassigned) [THCV, (—)trans-delta-9-tetrahydrocannabivarin] | 22 ± 5 | 105 ± 21 | > 10000 | > 10000 |  |
| CCCCCc1cc(O)c2c(c1)OC(C)(C)[C@@H]1CCC(CO)=C[C@@H]21 [11-Hydroxy, 11-OH-delta-9-tetrahydrocannabinol] | < 200 |  |  | < 200 |  |
| C=C(C)[C@@H]1CCC(C)=C[C@H]1c1c(O)cc(CCC)cc1O [CBDV, Cannabidivarin] | 503 ± 58 | 3970 | 3 ± 8 | > 10000 |  |
| CCCCCc1cc(O)c(C/C=C(\C)CCC=C(C)C)c(O)c1 [CBG, Cannabigerol] | 440 |  | 1160 | > 10000 |  |
| CCCCCc1cc(O)c(C/C=C(\C)CCC=C(C)C)c(O)c1C(=O)O [CBGA, Cannabigerolic acid] | 4530 | > 10000 | 118 ± 27 | 182 ± 32 |  |
| CCCCCc1cc(O)c2c(c1)OC(C)(C)c1ccc(C)cc1-2 [CBN, Cannabinol] | 368 ± 121 | 168 ± 32 | 289 ± 38 | 307 ± 39 |  |
| Cannabichromanone D [CBCN D] | 7120 | 2830 | 3940 | 8 ± 0.9 |  |
